Experimental data: patent US9238797B2, “Method for production of pluripotent stem cell” (TAKARA BIO INC., priority 2008, dated 2016)

Experiments:
human skin fibroblast [1] = assay: iPS cell colony induction, gene transfer with Retronectin or polybrene once or two times (Example 7); assay type: cell-based; settings: 28th day of culture, N=2
Description: Regarding gene transfer with a retrovirus vector, introduction was carried out once or two times using Retronectin or polybrene, and induction of a pluripotent stem cell was carried out, followed by comparison.
Regarding gene transfer with Retronectin, according to the same manner as that of Example 4-(2), gene transfer was carried out. Gene transfer with polybrene was carried out as follows. […] Each 700 μL of the virus solutions prepared by Preparation Example 2 were mixed in a combination of the condition C of Table 3, polybrene was added to a final concentration of 8 μg/mL to prepare a retrovirus vector mixed solution, the supernatant was removed from the plate on which the cell had been cultured, this retrovirus vector mixed solution was added, and culturing was initiated (day 0 of culturing).
Gene transfer with polybrene was carried out according to the same manner as that of gene transfer with polybrene of Example 7-(2). That is, the supernatant was removed from the plate on which the cell had been cultured, a retrovirus vector mixed solution prepared similarly was added, and culturing was continued.
On the sixth day of culture, according to the same manner as that of Example 5-(4), the gene-introduced cell was seeded on a feeder cell, and culturing was continued, provided that the gene-introduced cell was seeded by each 1.75×10^4 cells.
The number in the Table indicates an average value of N=2.

human skin fibroblast [2] = assay: AcGFP1 positive cell rate by flow cytometer (Example 19); assay type: cell-based
Description: As an index showing an existence rate of a cell in which each retrovirus vector together with a gene encoding a nuclear reprogramming factor (iPS cell inducing factor) was inserted, gene transfer of an AcGFP1 gene was carried out, and a pluripotent stem cell (iPS cell) induction efficiency and an AcGFP1 positive cell rate, in a gene transfer method with Retronectin (Retronectin method) and a gene transfer method with polybrene (polybrene method) were compared. In addition, regarding partial condition, quantitation of a copy number of a retrovirus vector inserted into a genome was carried out, and comparison of a copy number and a pluripotent stem cell (iPS cell) induction efficiency was carried out.
According to the same manner as that of Example 1-(1), immobilization of Retronectin on a culture plate was carried out, provided that, for a plate coated with Retronectin, a non-treatment 12-well plate was used, and each 1 mL of a Retronectin solution (25 μg/mL) was added to each well.
The virus solutions prepared in Preparation Example 2 and Preparation Example 3 were mixed at an equal amount in a combination of Table 24, the solution in which the virus solution was diluted 10-fold and 100-fold with 10F-DMEM was prepared regarding the condition A, and the solution in which the virus solution was diluted 10-fold was prepared regarding the condition B, and these were used in gene transfer. Gene transfer was carried out according to the same manner as that of Example 7-(2), provided that 1 mL of PSB was used for washing a plate with PBS in the Retronectin method, the cell number used in infection by the Retronectin method and the polybrene method was 4×10^4 cells/well, and a retrovirus vector solution was 1 mL/well.
According to the same manner as that of Example 10-(4), seeding of the gene-introduced cell on a feeder cell was carried out, provided that an AcGFP1 positive cell rate was measured with a flow cytometer using remaining cells which were not used in seeding on the feeder cell.

Retronectin: fragment of fibronectin having a heparin-II binding region (registered trademark, CH-296, TAKARA BIO INC.)
Number of iPS cell colonies (human skin fibroblast [1]; gene transfer once, with protein starvation treatment): 25.5
Number of iPS cell colonies (human skin fibroblast [1]; gene transfer once, without protein starvation treatment): 9.5
Number of iPS cell colonies (human skin fibroblast [1]; gene transfer two times, with protein starvation treatment): 30.0
Number of iPS cell colonies (human skin fibroblast [1]; gene transfer two times, without protein starvation treatment): 26.0
AcGFP1 positive rate (human skin fibroblast [2]; vector combination Condition A, virus 10-fold dilution): 82.8%
AcGFP1 positive rate (human skin fibroblast [2]; vector combination Condition A, virus 100-fold dilution): 94.1%
AcGFP1 positive rate (human skin fibroblast [2]; vector combination Condition B, virus 10-fold dilution): 88%
